This is an account of results in patent publication US11987586B1 (TAKEDA PHARMACEUTICAL COMPANY LIMITED, priority 2022, dated 2024).

One assay has as its target T1, human OX2 receptor (Homo sapiens, UniProt O43614).
T1 construct: expressed in transfected cells
T1 sequence (O43614 1-444): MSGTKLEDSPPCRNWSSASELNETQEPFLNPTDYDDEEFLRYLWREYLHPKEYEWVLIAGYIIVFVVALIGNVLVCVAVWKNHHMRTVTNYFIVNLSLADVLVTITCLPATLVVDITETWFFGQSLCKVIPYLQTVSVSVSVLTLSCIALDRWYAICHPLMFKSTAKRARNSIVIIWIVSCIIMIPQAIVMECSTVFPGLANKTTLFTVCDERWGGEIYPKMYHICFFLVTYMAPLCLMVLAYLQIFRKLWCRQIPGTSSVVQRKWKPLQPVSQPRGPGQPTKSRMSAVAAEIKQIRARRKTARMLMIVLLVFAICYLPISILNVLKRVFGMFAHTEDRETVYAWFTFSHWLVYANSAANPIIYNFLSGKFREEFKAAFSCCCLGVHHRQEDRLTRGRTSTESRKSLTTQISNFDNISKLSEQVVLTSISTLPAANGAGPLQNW
Kind of assay: Measurement of orexin type 2 receptor agonist activity (calcium fluorescence, Fluo-4, FDSS). The assay is classed as cell-based. Conditions: 3 uM test compound; CHO cells expressing human OX2 receptor; DMSO = 0%, 10 nM orexin A (human) = 100%. Summed up:
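Agonist activity (%) was normalised to the response to 10 nM final human orexin A (100%) and to the DMSO vehicle (0%). The response was measured as the Fluo-4 calcium signal, read kinetically over 1 min 40 s after compound addition to Fluo-4/probenecid-loaded stable CHO-K1 clones expressing human OX2 (aa 1-444).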

The subject of a further assay is cynomolgus monkeys. Put plainly: Evaluation of wake-promoting effects in cynomolgus monkeys (EEG, EMG, locomotor activity). Type of assay: in vivo, cynomolgus monkey. Particulars: Macaca fascicularis, po; 1 mg/kg, p.o., at zeitgeber time 12; 4 hours after administration; male cynomolgus monkeys; read-out: Wakefulness time (% of vehicle treatment) (Mean, n = 2-4). Here is the method:
The wake-promoting effects were evaluated by measuring the electroencephalogram (EEG), electromyogram (EMG) and locomotor activity in cynomolgus monkeys. Under isoflurane anesthesia (0.5-5%, Pfizer Japan Inc., Tokyo, Japan), male cynomolgus monkeys (2-3 years old, Hamri Co., Ltd., Ibaraki, Japan) were surgically implanted with radio-telemetry transmitters (L03-F3, Data Sciences International Inc., MN, USA). The two EEG electrodes were stereotaxically positioned at the parietal area and secured to the cranium with stainless-steel screws in contact with the dura. Bilateral EMG electrodes were implanted into the back cervical muscles. After at least a 1-month recovery period in home cages, the monkeys were habituated to the recording chamber (an acrylic cage 60W×55D×75H (cm)) located in a soundproof and electrically shielded room by the time animals sleep sufficiently in the experimental room. Cortical EEG, EMG and locomotor activity were recorded using the telemetry system (PhysioTel Digital telemetry platform, Data Sciences International Inc.). The signals were semi-automatically scored in 20-second epochs by a sleep scoring system (SleepSign, Kissei Comtec Co., Ltd., Nagano, Japan).
Test compound (1 or 3 mg/kg) suspended in 0.5% methylcellulose aqueous solution or vehicle (i.e., 0.5% methylcellulose aqueous solution) was administered orally (p.o.) to monkeys at zeitgeber time 12 in a volume of 5 mL/kg body weight with a pretest-posttest design (n=2-4), and then EEG, EMG and locomotor activity were recorded for 4 hours after administration. The time spent in wakefulness for 4 hours after administration (% of vehicle treatment) was calculated by using SleepSign.

With `CS(=O)(=O)N[C@@H]1CN2C(=O)N(c3noc4cc(F)cc(-c5c(F)cc(F)cc5F)c34)C[C@@H]2C1(F)F` [Example 149, N-{(6R,7aR)-7,7-Difluoro-2-[6-fluoro-4-(2,4,6-trifluorophenyl)-1,2-benzoxazol-3-yl]-3-oxohexahydro-1H-pyrrolo[1,2-c]imidazol-6-yl}methanesulfonamide], the “OX2R agonist activity (3 uM, %)” value on human OX2 receptor came to 95%. In the assay with cynomolgus monkeys, the response vs control in vivo at 1 mg/kg came out at 731%.

For the compound `CS(=O)(=O)N[C@@H]1CN2C(=O)N(c3noc4cccc(-c5c(F)cc(F)cc5F)c34)CC[C@@H]2C1(F)F` [Example 213, N-{(4aR,6R)-5,5-Difluoro-1-oxo-2-[4-(2,4,6-trifluorophenyl)-1,2-benzoxazol-3-yl]octahydropyrrolo[1,2-c]pyrimidin-6-yl}methanesulfonamide], the “OX2R agonist activity (3 uM, %)” value on human OX2 receptor came to 104%. Further, the response vs control in vivo at 1 mg/kg with cynomolgus monkeys is 447%.

`CS(=O)(=O)N[C@@H]1CN2C(=O)N(c3noc4cc(F)c(F)c(-c5c(F)cc(F)cc5F)c34)CC[C@@H]2C1(F)F` [Example 243, N-{(4aR,6R)-2-[5,6-difluoro-4-(2,4,6-trifluorophenyl)-1,2-benzoxazol-3-yl]-5,5-difluoro-1-oxooctahydropyrrolo[1,2-c]pyrimidin-6-yl}methanesulfonamide]: the “OX2R agonist activity (3 uM, %)” value at human OX2 receptor amounted to 109%. In addition, the response vs control in vivo at 1 mg/kg with cynomolgus monkeys amounted to 618%.

Consider `CS(=O)(=O)N[C@@H]1CN2C(=O)N(c3noc4ccc(F)c(-c5c(F)cccc5F)c34)CC[C@@H]2C1(F)F` [Example 265, N-{(4aR,6R)-2-[4-(2,6-difluorophenyl)-5-fluoro-1,2-benzoxazol-3-yl]-5,5-difluoro-1-oxooctahydropyrrolo[1,2-c]pyrimidin-6-yl}methanesulfonamide], for which, at human OX2 receptor, the “OX2R agonist activity (3 uM, %)” value came out at 107%. Besides, in the assay on cynomolgus monkeys, the response vs control in vivo at 1 mg/kg came to 472%.

With `CCS(=O)(=O)N[C@@H]1Cn2c(cn(-c3noc4cc(F)cc(-c5c(F)cccc5F)c34)c2=O)C1(F)F` [Example 282, N-{(6R)-2-[4-(2,6-difluorophenyl)-6-fluoro-1,2-benzoxazol-3-yl]-7,7-difluoro-3-oxo-2,5,6,7-tetrahydro-3H-pyrrolo[1,2-c]imidazol-6-yl}ethanesulfonamide], on human OX2 receptor, the “OX2R agonist activity (3 uM, %)” value worked out at 105%. Further, the response vs control in vivo at 1 mg/kg with cynomolgus monkeys amounted to 418%.
